From US12454534B2, “Pyrrolo[2,3-b]pyrazines as HPK1 inhibitor and the use thereof” (BEIGENE, LTD., priority 2019, dated 2025)

Biological target: T1, HPK1 kinase (aa1-346, Life Technologies) (Homo sapiens, UniProt Q92918)
T1 construct: HPK1 kinase (aa1-346, Life Technologies); purchased Life Technologies
T1 sequence (Q92918 1-346): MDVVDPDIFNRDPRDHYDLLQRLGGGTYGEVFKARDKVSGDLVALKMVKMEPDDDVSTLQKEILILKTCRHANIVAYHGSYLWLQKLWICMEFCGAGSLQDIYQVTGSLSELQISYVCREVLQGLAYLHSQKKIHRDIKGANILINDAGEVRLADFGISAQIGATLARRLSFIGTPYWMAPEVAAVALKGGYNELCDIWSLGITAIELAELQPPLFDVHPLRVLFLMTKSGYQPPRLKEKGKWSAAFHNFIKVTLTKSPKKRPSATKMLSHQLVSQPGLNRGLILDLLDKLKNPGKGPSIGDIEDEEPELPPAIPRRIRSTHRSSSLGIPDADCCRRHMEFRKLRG
Experiment: HPK1 Kinase Activity Assay at 1 mM ATP (TR-FRET)
Format: biochemical
Conditions: HPK1 40 nM, read-out: Enzymatic activity IC50
Protocol: HPK1 Kinase Activity Assay at 1 mM ATP
Compounds disclosed herein were tested for inhibition of HPK1 kinase (aa1-346, Life Technologies) activity in assays based on the time-resolved fluorescence-resonance energy transfer (TR-FRET) methodology. The assays were carried out in 384-well low volume black plates in a reaction mixture containing HPK1 kinase (40 nM), 1 mM ATP, 0.5 μM STK1 substrate and 0-10 μM compound in buffer containing 50 mM HEPES, 0.01% BSA, 0.1 mM Orthovanadate, 10 mM MgCl2, 1 mM DTT, pH=7.0, 0.005% Tween-20. The kinase was incubated with the compounds disclosed herein or DMSO for 60 minutes at room temperature and the reaction was initiated by the addition of ATP and STK1 substrate. After reaction at room temperature for 120 minutes, an equal volume of stop/detection solution was added according to the manufacturer's instruction (CisBio). The stop/detection solution contained STK Antibody-Cryptate and XL665-conjugated streptavidin in Detection Buffer. The TR-FRET signals (ratio of fluorescence emission at 665 nm over emission at 620 nm with excitation at 337 nm wavelength) were recorded on a PHERAstar FS plate reader (BMG Labtech). Phosphorylation of STK1 substrate led to the binding of STK Antibody-Cryptate to the biotinylated STK1 substrate, which places fluorescent donor (Eu^3+ cryptate) in close proximity to the accepter (Streptavidin-XL665), thus resulting in a high degree of fluorescence resonance energy transfer. The inhibition of HPK1 in presence of increasing concentrations of compounds was calculated based on the ratio of fluorescence at 665 nm to that at 620 nm. The IC50 for each compound was derived from fitting the data to the four-parameter logistic equation by Graphpad Prism software.

Row | SMILES | IC50
1 | Cc1cc(-c2c[nH]c3ncc(-c4cc(C)c5c(c4)CN(C)CC5)nc23)ccc1C(=O)N(C)C[C@@H](C)O [Example 4, (R)-4-(2-(2,5-dimethyl-1,2,3,4-tetrahydroisoquinolin-7-yl)-5H-pyrrolo[2,3-b]pyrazin-7-yl)-N-(2-hydroxypropyl)-N, 2-dimethylbenzamide] | 92 nM
2 | Cc1cc(-c2cnc3[nH]cc(-c4ccc(C(=O)N(C)C[C@H](C)O)cc4)c3n2)cc2c1CCN(C)C2 [Example 5, (S)-4-(2-(2,5-dimethyl-1,2,3,4-tetrahydroisoquinolin-7-yl)-5H-pyrrolo[2,3-b]pyrazin-7-yl)-N-(2-hydroxypropyl)-N-methylbenzamide] | 21 nM
3 | COc1cc(-c2cnc3[nH]cc(-c4cc(F)c(C(=O)N(C)C[C@@H]5CCOC5)c(F)c4)c3n2)cc2c1CN(C)CC2 [Example 7A, (S)-2,6-difluoro-4-(2-(8-methoxy-2-methyl-1,2,3,4-tetrahydroisoquinolin-6-yl)-5H-pyrrolo[2,3-b]pyrazin-7-yl)-N-methyl-N-((tetrahydrofuran-3-yl)methyl)benzamide] | 34 nM
4 | COc1cc(-c2cnc3[nH]cc(-c4cc(F)c(C(=O)N(C)C[C@H]5CCOC5)c(F)c4)c3n2)cc2c1CN(C)CC2 [Example 7B, (R)-2,6-difluoro-4-(2-(8-methoxy-2-methyl-1,2,3,4-tetrahydroisoquinolin-6-yl)-5H-pyrrolo[2,3-b]pyrazin-7-yl)-N-methyl-N-((tetrahydrofuran-3-yl)methyl)benzamide] | 31 nM
5 | Cc1cc(-c2cnc3[nH]cc(-c4ccc(C(=O)N(C)C[C@@H](C)O)cc4)c3n2)cc2c1CCN(C)C2 [Example 8, (R)-4-(2-(2,5-dimethyl-1,2,3,4-tetrahydroisoquinolin-7-yl)-5H-pyrrolo[2,3-b]pyrazin-7-yl)-N-(2-hydroxypropyl)-N-methylbenzamide] | 36 nM
6 | Cc1cc(-c2cnc3[nH]cc(-c4ccc(C(=O)N(C)C[C@@H](C)O)cc4)c3n2)cc2c1CCN(CCN1CCOCC1)C2 [Example 9, (R)—N-(2-hydroxypropyl)-N-methyl-4-(2-(5-methyl-2-(2-morpholinoethyl)-1,2,3,4-tetrahydroisoquinolin-7-yl)-5H-pyrrolo[2,3-b]pyrazin-7-yl)benzamide] | 62 nM
7 | Cc1cc(-c2c[nH]c3ncc(-c4cc(C)c5c(c4)CN(C)CC5)nc23)ccc1C(=O)N(C)C[C@H](C)O [Example 11, (S)-4-(2-(2,5-dimethyl-1,2,3,4-tetrahydroisoquinolin-7-yl)-5H-pyrrolo[2,3-b]pyrazin-7-yl)-N-(2-hydroxypropyl)-N, 2-dimethylbenzamide] | 74 nM
8 | COc1cc(-c2cnc3[nH]cc(-c4ccc(C(=O)N(C)C[C@H](C)O)c(C)c4)c3n2)cc2c1CCN(C)C2 [Example 12, (S)—N-(2-hydroxypropyl)-4-(2-(5-methoxy-2-methyl-1,2,3,4-tetrahydroisoquinolin-7-yl)-5H-pyrrolo[2,3-b]pyrazin-7-yl)-N, 2-dimethylbenzamide] | 52 nM
9 | Cc1cc(-c2cnc3[nH]cc(-c4ccc(C(=O)N(C)C[C@H](C)O)cc4)c3n2)cc2c1CCN(CCN1CCOCC1)C2 [Example 13, (S)—N-(2-hydroxypropyl)-N-methyl-4-(2-(5-methyl-2-(2-morpholinoethyl)-1,2,3,4-tetrahydroisoquinolin-7-yl)-5H-pyrrolo[2,3-b]pyrazin-7-yl)benzamide] | 45 nM
10 | CN[C@H]1CCN(C(=O)c2ccc(-c3c[nH]c4ncc(-c5cc(C)c6c(c5)CN(C)CC6)nc34)cc2)C1 [Example 14, (S)-(4-(2-(2,5-dimethyl-1,2,3,4-tetrahydroisoquinolin-7-yl)-5H-pyrrolo[2,3-b]pyrazin-7-yl)phenyl) (3-(methylamino)pyrrolidin-1-yl)methanone] | 12 nM
11 | Cc1cc(-c2c[nH]c3ncc(-c4cc(C)c5c(c4)CN(C)CC5)nc23)ccc1C(=O)N1CC(O)C1 [Example 17, (4-(2-(2,5-dimethyl-1,2,3,4-tetrahydroisoquinolin-7-yl)-5H-pyrrolo[2,3-b]pyrazin-7-yl)-2-methylphenyl) (3-hydroxyazetidine-1-yl)methanone] | 24 nM
12 | CN[C@H]1CCN(C(=O)c2ccc(-c3c[nH]c4ncc(-c5cc6c(c(OC)c5)CCN(C)C6)nc34)cc2)C1 [Example 18, (S)-(4-(2-(5-methoxy-2-methyl-1,2,3,4-tetrahydroisoquinolin-7-yl)-5H-pyrrolo[2,3-b]pyrazin-7-yl)phenyl) (3-(methylamino)pyrrolidin-1-yl)methanone] | 7 nM

Continued, values first:

Row | IC50 | SMILES
13 | 13 nM | Cc1cc(-c2cnc3[nH]cc(-c4ccc(C(=O)N5CC6(COC6)C5)cc4)c3n2)cc2c1CCN(C)C2 [Example 19, (4-(2-(2,5-dimethyl-1,2,3,4-tetrahydroisoquinolin-7-yl)-5H-pyrrolo[2,3-b]pyrazin-7-yl)phenyl) (2-oxa-6-azaspiro[3.3]heptan-6-yl)methanone]
14 | 75 nM | CC(=O)Nc1cc(-c2c[nH]c3ncc(-c4cc(C)c5c(c4)CN(C)CC5)nc23)ccc1C(=O)N(C)C [Example 21, 2-acetamido-4-(2-(2,5-dimethyl-1,2,3,4-tetrahydroisoquinolin-7-yl)-5H-pyrrolo[2,3-b]pyrazin-7-yl)-N, N-dimethylbenzamide]
15 | 11 nM | COc1cc(-c2cnc3[nH]cc(-c4ccc(C(=O)N(C)C)cc4)c3n2)cc2c1CN(C)CC2 [Example 22, 4-(2-(8-methoxy-2-methyl-1,2,3,4-tetrahydroisoquinolin-6-yl)-5H-pyrrolo[2,3-b]pyrazin-7-yl)-N, N-dimethylbenzamide]
16 | 122 nM | Cc1cc(-c2c[nH]c3ncc(-c4cc(C)c5c(c4)CN(CCC(=O)N[C@H]4CC[C@H](O)CC4)CC5)nc23)ccc1C(=O)N(C)C [Example 23, 4-(2-(2-(3-((trans-4-hydroxycyclohexyl)amino)-3-oxopropyl)-5-methyl-1,2,3,4-tetrahydroisoquinolin-7-yl)-5H-pyrrolo[2,3-b]pyrazin-7-yl)-N, N, 2-trimethylbenzamide]
17 | 75 nM | Cc1cc(-c2c[nH]c3ncc(-c4cc(C)c5c(c4)CN(CCC(=O)N4CCN(C)CC4)CC5)nc23)ccc1C(=O)N(C)C [Example 24, N, N, 2-trimethyl-4-(2-(5-methyl-2-(3-(4-methylpiperazin-1-yl)-3-oxopropyl)-1,2,3,4-tetrahydroisoquinolin-7-yl)-5H-pyrrolo[2,3-b]pyrazin-7-yl)benzamide]
18 | 49 nM | CNC(=O)CCN1CCc2c(C)cc(-c3cnc4[nH]cc(-c5ccc(C(=O)N(C)C)c(C)c5)c4n3)cc2C1 [Example 25, N, N, 2-trimethyl-4-(2-(5-methyl-2-(3-(methylamino)-3-oxopropyl)-1,2,3,4-tetrahydroisoquinolin-7-yl)-5H-pyrrolo[2,3-b]pyrazin-7-yl)benzamide]
19 | 63 nM | Cc1cc(-c2c[nH]c3ncc(-c4cc(C)c5c(c4)CN(CCC(=O)N(C)C)CC5)nc23)ccc1C(=O)N(C)C [Example 26, 4-(2-(2-(3-(dimethylamino)-3-oxopropyl)-5-methyl-1,2,3,4-tetrahydroisoquinolin-7-yl)-5H-pyrrolo[2,3-b]pyrazin-7-yl)-N, N, 2-trimethylbenzamide]
20 | 26 nM | COc1ccc(NC(=O)CCN2CCc3c(C)cc(-c4cnc5[nH]cc(-c6ccc(C(=O)N(C)C)c(C)c6)c5n4)cc3C2)cc1 [Example 27, 4-(2-(2-(3-(4-methoxyphenylamino)-3-oxopropyl)-5-methyl-1,2,3,4-tetrahydroisoquinolin-7-yl)-5H-pyrrolo[2,3-b]pyrazin-7-yl)-N, N, 2-trimethylbenzamide]
